In patent US7838608B2, “Fluorinated surfactants for making fluoropolymers” (3M Innovative Properties Company, priority 2005, dated 2010):

Experiment: Determination of bio-accumulation: urinary clearance pharmacokinetic study in rats
Details: oral gavage, 73 micro Moles per kg body weight
Procedure: Determination of Bio-Accumulation
The fluorinated surfactants were evaluated for urinary clearance using a pharmacokinetic study in rats. The goal was to measure the total amount of parent compound eliminated via urinary output and estimate the rate of elimination.
The study utilized male Sprague Dawley rats, 6 to 8 weeks of age, and approximately 200 to 250 g body weight at study onset. The test compounds of table 2 were administered at a dose of 73 micro Moles per kg body weight in rats (N=3 animals per tested compound). All test compounds were prepared in sterile deionized water and given to rats via oral gavage. After test compounds administration, the rats were housed individually in metabolism cages for urine collection: 0 to 6 hours, 6 to 24 hours, 24 to 48 hours and 72 to 96 hours. Animals were observed throughout the study for clinical signs of toxicity. Gross necropsy was performed at the termination of each study (96 hours post-dose) with sera and liver samples being retained from each animal.
The concentration of the parent compound or metabolites thereof were quantitatively measured via fluorine NMR on each urine sample for each animal at each time point based on internally added standards.
T1/2 is the renal half-life and is the time required for the amount of a particular substance in a biological system to be reduced to one half of its value by biological processes when the rate of removal is approximately exponential. In these examples the value of T1/2 is calculated by exponential least squares curve fitting (y=Ae^Bx and T1/2=0.693/B) where y represents the concentration of analyte in urine and x represents time in hours.

For `N.O=C(O)C(F)(F)C(F)(F)C(F)(F)C(F)(F)C(F)(F)C(F)(F)C(F)(F)F` [APFO, ammonium perfluorooctanoic acid, reference compound], the “Compound-related Effects” value (clinical signs of toxicity and gross necropsy at 96 hours post-dose) was “Hepatomegaly”.
For `N.O=C(O)C(F)OC(F)(F)C(F)(F)C(F)(F)OC(F)(F)F` (stereo not drawn) [Compound 3, CF3—O—CF2—CF2—CF2—O—CHF—COONH4], the “% Recovery (96 h)” value (recovery in urine after 96 h) was 95% and the “T½ (renal elimination half-life)” value (urine measured by fluorine NMR, exponential least squares curve fitting) was 11 h.
